In patent US20230149351A1, “TREATMENT OF SYMPTOMATIC VIRAL DISEASES” (SYNACT PHARMA ApS, priority 2020, published 2023):

Assays:
[1] = biological target: MC1R (Homo sapiens, UniProt Q01726); settings: cited from earlier work
[2] = tested on: macrophages; settings: cited from earlier work
[3] = tested on: experimental inflammatory arthritis; settings: oral; cited from earlier work
[4] = tested on: acute peritonitis induced by zymosan A; assay: Zymosan A induced acute peritonitis in mice (peritoneal cytokines by ELISA, neutrophil counts by flow cytometry); format: in vivo, mice (C57BL/6J); settings: 1 mg/kg intraperitoneal 30 minutes before zymosan A, sacrifice twelve hours later, N=6
Description: Acute peritonitis was induced by the injection of 1 mg zymosan A (Sigma-Aldrich) i.p. in 0.5 ml sterile PBS in mice. Twelve hours later the mice were sacrificed by CO2 exposure, and peritoneal cavities were washed with 4 ml ice-cold PBS containing 3 mM EDTA. Cells were stained with Turk’s solution (0.01% crystal violet in 3% acetic acid) and counted using a Neubauer hemocytometer or were stained with FITC-conjugated mAb for Ly-6G/Gr1, F4/80, and corresponding isotype controls (eBioscience, Hatfield, U.K.), and subjected to flow-cytometry analysis using a BD FACSCalibur platform (BD Biosciences, Oxford, U.K.).
Levels of IL-1β and IL-6 in quick frozen samples were quantified according to the manufacturer’s instructions using ELISA Ready-SET-Go! (eBioscience).
All animal studies were approved by and performed under the guidelines of the Ethical Committee for the Use of Animals, Barts and The London School of Medicine and Home Office regulations (Guidance on the Operation of Animals, Scientific Procedures Act, 1986). Male (7-8 wk old) C57BL/6J wild-type (WT) mice were purchased from Charles River Laboratories.
Test Item A, 1 mg/kg or vehicle treatment were given intraperitoneal 30 minutes before induction of the acute peritonitis. N=6 for in both groups.

[5] = tested on: MC3R; settings: cited from earlier work
[6] = tested on: peritonitis; settings: oral; cited from earlier work
[7] = tested on: Covid-19 induced pulmonary insufficiency; settings: 100 mg once daily oral, add-on to standard therapy; 6 patients
Description: The initial open label part of the study was conducted in 6 patients referred to hospital with Covid-19 induced pulmonary insufficiency, defined as a need for supplementary oxygen to maintain normal saturation.

[8] = tested on: melanocytes; settings: cited from earlier work
[9] = tested on: mouse primary macrophages; settings: cited from earlier work
[10] = tested on: MC1R; settings: cited from earlier work

Chain of MC1R (Homo sapiens, UniProt Q01726) (Q01726 whole entry, species assumed): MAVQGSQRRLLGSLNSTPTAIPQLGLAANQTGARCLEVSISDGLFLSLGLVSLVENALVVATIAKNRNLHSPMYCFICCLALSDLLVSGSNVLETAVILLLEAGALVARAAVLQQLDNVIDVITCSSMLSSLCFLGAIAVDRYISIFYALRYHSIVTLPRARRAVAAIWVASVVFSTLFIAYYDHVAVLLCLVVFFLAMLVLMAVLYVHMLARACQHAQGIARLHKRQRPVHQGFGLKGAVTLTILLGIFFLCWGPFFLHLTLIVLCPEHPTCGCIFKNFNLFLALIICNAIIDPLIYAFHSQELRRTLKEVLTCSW

Question: What does the source list for `NC(N)=N/N=C/C=C/c1cccn1-c1ccccc1[N+](=O)[O-]` [AP1189, (E)-N-trans-{3-[1-(2-nitrophenyl)-1H-pyrrol-2-yl]-allylidene}-aminoguanidium acetate]?
Answer: binding to MC1R [1]: bind the MC1R; cytokine release [2]: reduce cytokine release; macroscopic and histological parameters of joint disruption [3]: significant reduction; reduction of neutrophil accumulation compared to vehicle [4]: 70%; reduction of levels of pro-inflammatory cytokine IL-1β compared to pretreatment with vehicle ([4]; p<0.05 vs vehicle): 37%; reduction of levels of pro-inflammatory cytokine IL-6 compared to pretreatment with vehicle ([4]; p<0.05 vs vehicle): 59%; ERK1/2 phosphorylation (MC3R) [5]: cause ERK1/2 phosphorylation; canonical cAMP generation (MC3R) [5]: does not induce canonical cAMP generation; type of agonism at MC3R [5]: biased agonist; anti-inflammatory action in peritonitis [6]: elicits anti-inflammatory actions; resolution phase of peritonitis [6]: accelerated the resolution phase; development of a need for more intensive pulmonary support [7]: none of them developed a need for more intensive pulmonary support; safety and tolerability [7]: safe and well tolerated; melanogenesis [8]: no melanogenesis was induced; efferocytosis [9]: proefferocytic effect; ERK1/2 phosphorylation (MC1R) [10]: cause ERK1/2 phosphorylation; canonical cAMP generation (MC1R) [10]: does not induce canonical cAMP generation; type of agonism at MC1R [10]: biased agonist
